From patent US10294202B2, “Pyrrolidinones as herbicides” (FMC Corporation, priority 2013, dated 2019)

Assays:
barnyardgrass = assay: Test B flooded paddy test; assay type: in vivo, Echinochloa crus-galli; details: 500 g ai/ha, Flood; scale of 0 to 100 where 0 is no effect and 100 is complete control
Procedure, shortened: (§1)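 Scoring: visual, compared with untreated controls, 0 = no effect through 100 = complete control, taken 13 to 15 days after treatment in the greenhouse. Compounds had been added to paddy water over soil flooded 3 cm deep at the plants' 2-leaf stage.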

sedge, umbrella = assay: Test B flooded paddy test; assay type: in vivo, Cyperus difformis; details: 500 g ai/ha, Flood; scale of 0 to 100 where 0 is no effect and 100 is complete control
Procedure, shortened: as §1

pigweed = assay: Test C pre-/postemergence herbicide test; assay type: in vivo, Amaranthus retroflexus
Procedure, shortened: (§2)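 Herbicidal effect was judged by eye 13 to 15 days after treatment in the greenhouse, using a 0–100 scale against controls. Chemicals in a non-phytotoxic solvent with surfactant were sprayed onto planted loam/sand soil or onto plants 2 to 18 cm tall in a peat-based growing medium.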

johnsongrass = assay: Test C pre-/postemergence herbicide test; assay type: in vivo, Sorghum halepense
Procedure, shortened: as §2

velvetleaf = assay: Test C pre-/postemergence herbicide test; assay type: in vivo, Abutilon theophrasti
Procedure, shortened: as §2

ragweed = assay: Test C pre-/postemergence herbicide test; assay type: in vivo, Ambrosia elatior
Procedure, shortened: as §2

wheat = assay: Test A pre-/postemergence herbicide test; assay type: in vivo, Triticum aestivum; details: Postemergence
Procedure, shortened: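 Both application timings used compounds in a non-phytotoxic solvent plus surfactant. Pre-emergence: soil sprayed directly after seeding into loam/sand. Post-emergence: foliage of 2–10 cm seedlings (1–2 leaves) sprayed. Injury rated ~10 days later, 0–100.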

blackgrass = assay: Test C pre-/postemergence herbicide test; assay type: in vivo, Alopecurus myosuroides
Procedure, shortened: as §2

wheat (winter wheat) = assay: Test C pre-/postemergence herbicide test; assay type: in vivo, Triticum aestivum
Procedure, shortened: as §2

oilseed rape = assay: Test C pre-/postemergence herbicide test; assay type: in vivo, Brassica napus
Procedure, shortened: as §2

rice = assay: Test B flooded paddy test; assay type: in vivo, Oryza sativa; details: 500 g ai/ha, Flood; scale of 0 to 100 where 0 is no effect and 100 is complete control
Procedure, shortened: as §1

crabgrass, large = assay: Test C pre-/postemergence herbicide test; assay type: in vivo, Digitaria sanguinalis
Procedure, shortened: as §2

[1] = Postemergence, 31 g ai/ha, scale 0 to 100 (0 no effect, 100 complete control)
[2] = Postemergence, 62 g ai/ha, scale 0 (no effect) to 100 (complete control)
[3] = Postemergence, 125 g ai/ha, scale 0 to 100 (0 no effect, 100 complete control)
[4] = Postemergence, 250 g ai/ha, scale 0 to 100 (0 no effect, 100 complete control)
[5] = Preemergence, 31 g ai/ha, scale 0 to 100, 0 is no effect and 100 is complete control
[6] = Preemergence, 62 g ai/ha, scale 0 to 100 (0 no effect, 100 complete control)
[7] = Preemergence, 125 g ai/ha, scale 0 to 100
[8] = 125 g ai/ha, visual rating on 0 to 100 scale (0 no effect, 100 complete control), approx. 10 days
[9] = 500 g ai/ha, 0 to 100 scale (0 no effect, 100 complete control)

O=C1NCC(c2cccc(C(F)(F)F)c2)C1C(=O)Nc1ccc(F)c(F)c1F (centres unmarked) [Compound 315]
Plant response rating, Barnyardgrass (barnyardgrass): 70 | Plant response rating, Sedge, Umbrella (sedge, umbrella): 0 | Plant response rating, Pigweed (pigweed; [1]): 25 | Plant response rating, Pigweed (pigweed; [2]): 65 | Plant response rating, Pigweed (pigweed; [3]): 65 | Plant response rating, Pigweed (pigweed; [4]): 80 | Pigweed plant response rating (pigweed; [5]): 45 | Pigweed plant response rating (pigweed; [6]): 60 | Plant response rating, Pigweed (pigweed; [7]): 75 | Plant response rating (scale of 0 to 100), Pigweed (pigweed; Preemergence, 250 g ai/ha): 85 | Plant response rating, Johnsongrass (johnsongrass; [1]): 0 | Plant response rating, Johnsongrass (johnsongrass; [2]): 0 | Plant response rating, Johnsongrass (johnsongrass; [3]): 0 | Plant response rating, Johnsongrass (johnsongrass; [4]): 35 | Johnsongrass plant response rating (johnsongrass; [5]): 75 | Johnsongrass plant response rating (johnsongrass; [6]): 85 | Plant response rating, Johnsongrass (johnsongrass; [7]): 85 | Plant response rating (scale of 0 to 100), Johnsongrass (johnsongrass; Preemergence, 250 g ai/ha): 90 | Plant response rating, Velvetleaf (velvetleaf; [1]): 10 | Plant response rating, Velvetleaf (velvetleaf; [2]): 25 | Plant response rating, Velvetleaf (velvetleaf; [3]): 30 | Plant response rating, Velvetleaf (velvetleaf; [4]): 55 | Velvetleaf plant response rating (velvetleaf; [6]): 30 | Plant response rating, Velvetleaf (velvetleaf; [7]): 40 | Plant response rating (scale of 0 to 100), Velvetleaf (velvetleaf; Preemergence, 250 g ai/ha): 50 | Plant response rating, Ragweed (ragweed; [1]): 0 | Plant response rating, Ragweed (ragweed; [2]): 20 | Plant response rating, Ragweed (ragweed; [3]): 65 | Plant response rating, Ragweed (ragweed; [4]): 70 | Ragweed plant response rating (ragweed; [6]): 20 | Plant response rating, Ragweed (ragweed; [7]): 50 | Plant response rating (scale of 0 to 100), Ragweed (ragweed; Preemergence, 250 g ai/ha): 80 | Plant response rating, Wheat (wheat; [8]): 60 | Plant response rating, Wheat (wheat; [9]): 70 | Plant response rating, Blackgrass (blackgrass; [1]): 0 | Plant response rating, Blackgrass (blackgrass; [2]): 0 | Plant response rating, Blackgrass (blackgrass; [3]): 30 | Plant response rating, Blackgrass (blackgrass; [4]): 25 | Blackgrass plant response rating (blackgrass; [5]): 60 | Blackgrass plant response rating (blackgrass; [6]): 60 | Plant response rating, Blackgrass (blackgrass; [7]): 65 | Plant response rating (scale of 0 to 100), Blackgrass (blackgrass; Preemergence, 250 g ai/ha): 85 | Plant response rating, Wheat (wheat (winter wheat); [1]): 0 | Plant response rating, Wheat (wheat (winter wheat); [2]): 0 | Plant response rating, Wheat (wheat (winter wheat); [3]): 0 | Plant response rating, Wheat (wheat (winter wheat); [4]): 5 | Wheat plant response rating (wheat (winter wheat); [6]): 50 | Plant response rating, Wheat (wheat (winter wheat); [7]): 90 | Plant response rating (scale of 0 to 100), Wheat (wheat (winter wheat); Preemergence, 250 g ai/ha): 90 | Plant response rating, Oilseed Rape (oilseed rape; [1]): 0 | Plant response rating, Oilseed Rape (oilseed rape; [2]): 0 | Plant response rating, Oilseed Rape (oilseed rape; [3]): 0 | Plant response rating, Oilseed Rape (oilseed rape; [4]): 10 | Oilseed Rape plant response rating (oilseed rape; [5]): 5 | Oilseed Rape plant response rating (oilseed rape; [6]): 30 | Plant response rating, Oilseed Rape (oilseed rape; [7]): 85 | Plant response rating (scale of 0 to 100), Oilseed Rape (oilseed rape; Preemergence, 250 g ai/ha): 80 | Plant response rating, Rice (rice): 15 | Plant response rating, Crabgrass, Large (crabgrass, large; [1]): 55 | Plant response rating, Crabgrass, Large (crabgrass, large; [2]): 65 | Plant response rating, Crabgrass, Large (crabgrass, large; [3]): 70 | Plant response rating, Crabgrass, Large (crabgrass, large; [4]): 75 | Crabgrass, Large plant response rating (crabgrass, large; [5]): 90 | Crabgrass, Large plant response rating (crabgrass, large; [6]): 95 | Plant response rating, Crabgrass, Large (crabgrass, large; [7]): 95 | Plant response rating (scale of 0 to 100), Crabgrass, Large (crabgrass, large; Preemergence, 250 g ai/ha): 98

O=C1NCC(c2cccc(C(F)(F)F)c2)C1C(=O)Nc1cccc(Cl)c1F (centres unmarked) [Compound 316]
Plant response rating, Barnyardgrass (barnyardgrass): 60 | Plant response rating, Sedge, Umbrella (sedge, umbrella): 0 | Plant response rating, Pigweed (pigweed; [1]): 15 | Plant response rating, Pigweed (pigweed; [2]): 50 | Plant response rating, Pigweed (pigweed; [3]): 60 | Plant response rating, Pigweed (pigweed; [4]): 75 | Pigweed plant response rating (pigweed; [5]): 25 | Pigweed plant response rating (pigweed; [6]): 25 | Plant response rating, Pigweed (pigweed; [7]): 45 | Plant response rating, Johnsongrass (johnsongrass; [1]): 0 | Plant response rating, Johnsongrass (johnsongrass; [2]): 0 | Plant response rating, Johnsongrass (johnsongrass; [3]): 0 | Plant response rating, Johnsongrass (johnsongrass; [4]): 0 | Johnsongrass plant response rating (johnsongrass; [5]): 50 | Johnsongrass plant response rating (johnsongrass; [6]): 75 | Plant response rating, Johnsongrass (johnsongrass; [7]): 75 | Plant response rating (scale of 0 to 100), Johnsongrass (johnsongrass; Preemergence, 250 g ai/ha): 85 | Plant response rating, Velvetleaf (velvetleaf; [1]): 0 | Plant response rating, Velvetleaf (velvetleaf; [2]): 0 | Plant response rating, Velvetleaf (velvetleaf; [3]): 45 | Plant response rating, Velvetleaf (velvetleaf; [4]): 35 | Velvetleaf plant response rating (velvetleaf; [6]): 10 | Plant response rating, Velvetleaf (velvetleaf; [7]): 10 | Plant response rating, Ragweed (ragweed; [1]): 45 | Plant response rating, Ragweed (ragweed; [2]): 0 | Plant response rating, Ragweed (ragweed; [3]): 35 | Plant response rating, Ragweed (ragweed; [4]): 65 | Ragweed plant response rating (ragweed; [6]): 0 | Plant response rating, Ragweed (ragweed; [7]): 10 | Plant response rating, Wheat (wheat; [8]): 20 | Plant response rating, Wheat (wheat; [9]): 40 | Plant response rating, Blackgrass (blackgrass; [1]): 0 | Plant response rating, Blackgrass (blackgrass; [2]): 0 | Plant response rating, Blackgrass (blackgrass; [3]): 0 | Plant response rating, Blackgrass (blackgrass; [4]): 0 | Blackgrass plant response rating (blackgrass; [5]): 0 | Blackgrass plant response rating (blackgrass; [6]): 0 | Plant response rating, Blackgrass (blackgrass; [7]): 30 | Plant response rating (scale of 0 to 100), Blackgrass (blackgrass; Preemergence, 250 g ai/ha): 60 | Plant response rating, Wheat (wheat (winter wheat); [1]): 0 | Plant response rating, Wheat (wheat (winter wheat); [2]): 0 | Plant response rating, Wheat (wheat (winter wheat); [3]): 0 | Plant response rating, Wheat (wheat (winter wheat); [4]): 0 | Wheat plant response rating (wheat (winter wheat); [6]): 5 | Plant response rating, Wheat (wheat (winter wheat); [7]): 40 | Plant response rating, Oilseed Rape (oilseed rape; [1]): 0 | Plant response rating, Oilseed Rape (oilseed rape; [2]): 0 | Plant response rating, Oilseed Rape (oilseed rape; [3]): 0 | Plant response rating, Oilseed Rape (oilseed rape; [4]): 0 | Oilseed Rape plant response rating (oilseed rape; [5]): 0 | Oilseed Rape plant response rating (oilseed rape; [6]): 0 | Plant response rating, Oilseed Rape (oilseed rape; [7]): 20 | Plant response rating (scale of 0 to 100), Oilseed Rape (oilseed rape; Preemergence, 250 g ai/ha): 60 | Plant response rating, Rice (rice): 0 | Plant response rating, Crabgrass, Large (crabgrass, large; [1]): 0 | Plant response rating, Crabgrass, Large (crabgrass, large; [2]): 50 | Plant response rating, Crabgrass, Large (crabgrass, large; [3]): 60 | Plant response rating, Crabgrass, Large (crabgrass, large; [4]): 70 | Crabgrass, Large plant response rating (crabgrass, large; [5]): 90 | Crabgrass, Large plant response rating (crabgrass, large; [6]): 95 | Plant response rating, Crabgrass, Large (crabgrass, large; [7]): 95 | Plant response rating (scale of 0 to 100), Crabgrass, Large (crabgrass, large; Preemergence, 250 g ai/ha): 98
